Laboratory results from patent publication US20100152129A1 (priority 2008, published 2010).
Where two headings read alike, the source gives them in different places.

Assays:
[1] = test system: Panc1 cells; conditions: human
[2] = test system: Panc-1 cells; test: Protein expression using high content cell imaging system, and efficacy score; assay type: cell-based; conditions: for Efficacy score: cumulative over proteins of Table 7; for BCL2 protein expression: test concentration or dose not given here; for CCND1 protein expression: test concentration or dose not given here; for CDC25B protein expression: test concentration or dose not given here; for CDKN2A protein expression: test concentration or dose not given here; for COX15 protein expression: test concentration or dose not given here; for GADD45-α protein expression: test concentration or dose not given here; for GAPDH protein expression: test concentration or dose not given here; for ID1 protein expression: test concentration or dose not given here; for MMP-1 protein expression: test concentration or dose not given here; for P27 protein expression: test concentration or dose not given here; for PTN protein expression: test concentration or dose not given here
[3] = test system: Panc1 cells; test: Drug induced cytotoxicity at various time points, comparison with known CDK inhibitors
[4] = 6 hours post treatment, control 1
[5] = 6 hours post treatment, control 3
[6] = 6 hours post treatment, control 6
[7] = 6 hours post treatment, control 7
[8] = 6 hours post treatment, control 8
[9] = 6 hours post treatment, control 74
[10] = 6 hours post treatment, control 80
[11] = 6 hours post treatment, control 147
[12] = 6 hours post treatment, control 501
[13] = 6 hours post treatment, control 627
[14] = 6 hours post treatment, control 635
[15] = 6 hours post treatment, control 819
[16] = 6 hours post treatment, control 829
[17] = 6 hours post treatment, control 830
[18] = 6 hours post treatment, control 1240
[19] = 16 hours post treatment, control 13
[20] = 16 hours post treatment, control 54
[21] = 16 hours post treatment, control 64
[22] = 16 hours post treatment, control 67
[23] = 16 hours post treatment, control 76
[24] = 16 hours post treatment, control 77
[25] = 16 hours post treatment, control 90
[26] = 16 hours post treatment, control 100
[27] = 16 hours post treatment, control 202
[28] = 16 hours post treatment, control 579
[29] = 16 hours post treatment, control 644
[30] = 16 hours post treatment, control 711
[31] = 16 hours post treatment, control 718
[32] = 16 hours post treatment, control 929
[33] = 16 hours post treatment, control 1109
[34] = 16 hours post treatment, control 2583
[35] = 36 hours post treatment, control 19
[36] = 36 hours post treatment, control 86
[37] = 36 hours post treatment, control 96
[38] = 36 hours post treatment, control 98
[39] = 36 hours post treatment, control 100
[40] = 36 hours post treatment, control 265
[41] = 36 hours post treatment, control 715
[42] = 36 hours post treatment, control 722
[43] = 36 hours post treatment, control 1093
[44] = 36 hours post treatment, control 1316
[45] = 36 hours post treatment, control 1410
[46] = 36 hours post treatment, control 1441
[47] = 36 hours post treatment, control 2840

SMILES: CN1CC[C@H](c2c(O)cc(O)c3c(=O)cc(-c4ccccc4Cl)oc23)[C@H](O)C1 [Flavopiridol]
- % Cytotoxicity in Panc1 cells ([1]; 16 h): 21.25%
- % Cytotoxicity in Panc1 cells ([1]; 36 h): 29.47%
- PTN protein expression [2, 4]: 1 fluorescence units
- GADD45-α protein expression [2, 5]: 1 fluorescence units
- ID1 protein expression [2, 5]: 2 fluorescence units
- P27 protein expression [2, 6]: 9 fluorescence units
- CDC25B protein expression [2, 7]: 1 fluorescence units
- CDKN2A protein expression [2, 8]: 67 fluorescence units
- CCND1 protein expression [2, 9]: 78 fluorescence units
- GAPDH protein expression [2, 10]: 80 fluorescence units
- CASP3 protein expression [2, 11]: 111 fluorescence units
- MMP-1 protein expression [2, 12]: 501 fluorescence units
- COX15 protein expression [2, 13]: 689 fluorescence units
- COX2 protein expression [2, 14]: 351 fluorescence units
- BAX protein expression [2, 15]: 481 fluorescence units
- VEGF protein expression [2, 16]: 501 fluorescence units
- BCL2 protein expression [2, 17]: 410 fluorescence units
- pRB protein expression [2, 18]: 1523 fluorescence units
- Efficacy score ([2]; 6 hours): 1.6
- GADD45-α protein expression [2, 19]: 15 fluorescence units
- CDC25B protein expression [2, 20]: 10 fluorescence units
- CDKN2A protein expression [2, 21]: 14 fluorescence units
- P27 protein expression [2, 22]: 22 fluorescence units
- PTN protein expression [2, 23]: 17 fluorescence units
- ID1 protein expression [2, 24]: 19 fluorescence units
- CCND1 protein expression [2, 25]: 52 fluorescence units
- GAPDH protein expression [2, 26]: 100 fluorescence units
- CASP3 protein expression [2, 27]: 536 fluorescence units
- VEGF protein expression [2, 28]: 129 fluorescence units
- BCL2 protein expression [2, 29]: 401 fluorescence units
- BAX protein expression [2, 30]: 252 fluorescence units
- COX15 protein expression [2, 31]: 459 fluorescence units
- MMP-1 protein expression [2, 32]: 129 fluorescence units
- COX2 protein expression [2, 33]: 466 fluorescence units
- pRB protein expression [2, 34]: 1300 fluorescence units
- Efficacy score ([2]; 16 hours): 9.4
- GADD45-α protein expression [2, 35]: 5 fluorescence units
- COX2 protein expression [2, 36]: 2 fluorescence units
- P27 protein expression [2, 37]: 2 fluorescence units
- CCND1 protein expression [2, 38]: 27 fluorescence units
- CDC25B protein expression [2, 38]: 21 fluorescence units
- GAPDH protein expression [2, 38]: 2 fluorescence units
- ID1 protein expression [2, 38]: 3 fluorescence units
- PTN protein expression [2, 39]: 100 fluorescence units
- CASP3 protein expression [2, 40]: 599 fluorescence units
- BAX protein expression [2, 41]: 1049 fluorescence units
- COX15 protein expression [2, 42]: 1256 fluorescence units
- VEGF protein expression [2, 43]: 316 fluorescence units
- MMP-1 protein expression [2, 44]: 316 fluorescence units
- BCL2 protein expression [2, 45]: 367 fluorescence units
- CDKN2A protein expression [2, 46]: 798 fluorescence units
- pRB protein expression [2, 47]: 1557 fluorescence units
- Efficacy score ([2]; 36 hours): 9.3

SMILES: CC[C@H](CO)Nc1nc(NCc2ccccc2)c2ncn(C(C)C)c2n1 [Roscovitine]
- PTN protein expression [2, 4]: 2 fluorescence units
- GADD45-α protein expression [2, 5]: 2 fluorescence units
- ID1 protein expression [2, 5]: 16 fluorescence units
- P27 protein expression [2, 6]: 6 fluorescence units
- CDC25B protein expression [2, 7]: 4 fluorescence units
- CDKN2A protein expression [2, 8]: 10 fluorescence units
- CCND1 protein expression [2, 9]: 82 fluorescence units
- GAPDH protein expression [2, 10]: 81 fluorescence units
- CASP3 protein expression [2, 11]: 217 fluorescence units
- MMP-1 protein expression [2, 12]: 417 fluorescence units
- COX15 protein expression [2, 13]: 936 fluorescence units
- COX2 protein expression [2, 14]: 542 fluorescence units
- BAX protein expression [2, 15]: 729 fluorescence units
- VEGF protein expression [2, 16]: 417 fluorescence units
- BCL2 protein expression [2, 17]: 569 fluorescence units
- pRB protein expression [2, 18]: 1578 fluorescence units
- Efficacy score ([2]; 6 hours): 1.9
- GADD45-α protein expression [2, 19]: 49 fluorescence units
- CDC25B protein expression [2, 20]: 38 fluorescence units
- CDKN2A protein expression [2, 21]: 47 fluorescence units
- P27 protein expression [2, 22]: 42 fluorescence units
- PTN protein expression [2, 23]: 37 fluorescence units
- ID1 protein expression [2, 24]: 55 fluorescence units
- CCND1 protein expression [2, 25]: 84 fluorescence units
- GAPDH protein expression [2, 26]: 99 fluorescence units
- CASP3 protein expression [2, 27]: 1272 fluorescence units
- VEGF protein expression [2, 28]: 475 fluorescence units
- BCL2 protein expression [2, 29]: 529 fluorescence units
- BAX protein expression [2, 30]: 747 fluorescence units
- COX15 protein expression [2, 31]: 954 fluorescence units
- MMP-1 protein expression [2, 32]: 475 fluorescence units
- COX2 protein expression [2, 33]: 990 fluorescence units
- pRB protein expression [2, 34]: 1632 fluorescence units
- Efficacy score ([2]; 16 hours): 11.5
- GADD45-α protein expression [2, 35]: 44 fluorescence units
- COX2 protein expression [2, 36]: 67 fluorescence units
- P27 protein expression [2, 37]: 63 fluorescence units
- CCND1 protein expression [2, 38]: 98 fluorescence units
- CDC25B protein expression [2, 38]: 68 fluorescence units
- GAPDH protein expression [2, 38]: 75 fluorescence units
- ID1 protein expression [2, 38]: 56 fluorescence units
- PTN protein expression [2, 39]: 98 fluorescence units
- CASP3 protein expression [2, 40]: 1335 fluorescence units
- BAX protein expression [2, 41]: 1785 fluorescence units
- COX15 protein expression [2, 42]: 1992 fluorescence units
- VEGF protein expression [2, 43]: 1024 fluorescence units
- MMP-1 protein expression [2, 44]: 1024 fluorescence units
- BCL2 protein expression [2, 45]: 1091 fluorescence units
- CDKN2A protein expression [2, 46]: 1322 fluorescence units
- pRB protein expression [2, 47]: 1889 fluorescence units
- Efficacy score ([2]; 36 hours): 8.1
- % Cytotoxicity in Panc1 cells ([3]; 6 hrs after drug treatment): 12.35%
- % Cytotoxicity in Panc1 cells ([3]; 16 hrs after drug treatment): 15.24%
- % Cytotoxicity in Panc1 cells ([3]; 36 hrs after drug treatment): 17.35%
